Measurements reported in patent US20110245164A1 (INDIANA UNIVERSITY RESEARCH AND TECHNOLOGY, published 2011).
Non-standard residues stand in square brackets, D forms with d. Residues, ends and D or L forms follow the SMILES beside them. Groups on a side chain read outwards from the residue. No end group written: not given here. Phe(4-NH2) = Nc1ccc(C[C@H](N)C(=O)O)cc1; Aze = O=C(O)[C@@H]1CCN1; Nleu = CC(C)CNCC(=O)O; Aib = CC(C)(N)C(=O)O

Columns and labels:
physchem = details: buffer
Procedure: (§1) The solution was incubated at 37° C. […] The dipeptide cleavage was quenched by lowering the pH with an equal volume of 0.1% TFA. The rate of cleavage was qualitatively monitored by LC-MS and quantitatively studied by HPLC. The retention time and relative peak area for the prodrug and the parent model peptide were quantified using Peak Simple Chromatography software.
(§2) The flow rate was 1 ml/min. Solvent A contained 0.1% TFA in distilled water, and solvent B contained 0.1% TFA in 90% CH3CN. A linear gradient was employed (0% to 30% B in 10 minutes). The data were collected and analyzed using Peak Simple Chromatography software.
(§3) The rate of cleavage was determined for the respective propeptides. The concentrations of the propeptides and the model parent peptide were determined by their respective peak areas. The first order dissociation rate constants of the prodrugs were determined by plotting the logarithm of the concentration of the prodrug at various time intervals. The slope of this plot provides the rate constant ‘k’.

[1] = Rate of model dipeptide cleavage from model hexapeptide in PBS (HPLC); details: buffer
Procedure: as §1, §2, §3

Insulin Receptor = Insulin Receptor (Homo sapiens, UniProt P06213); assay: Insulin receptor binding assay (competition, scintillation proximity); details: Table 9; IGF-1 receptor IC50 versus insulin receptor IC50
Insulin Receptor, sequence (P06213 28-758 limits assumed): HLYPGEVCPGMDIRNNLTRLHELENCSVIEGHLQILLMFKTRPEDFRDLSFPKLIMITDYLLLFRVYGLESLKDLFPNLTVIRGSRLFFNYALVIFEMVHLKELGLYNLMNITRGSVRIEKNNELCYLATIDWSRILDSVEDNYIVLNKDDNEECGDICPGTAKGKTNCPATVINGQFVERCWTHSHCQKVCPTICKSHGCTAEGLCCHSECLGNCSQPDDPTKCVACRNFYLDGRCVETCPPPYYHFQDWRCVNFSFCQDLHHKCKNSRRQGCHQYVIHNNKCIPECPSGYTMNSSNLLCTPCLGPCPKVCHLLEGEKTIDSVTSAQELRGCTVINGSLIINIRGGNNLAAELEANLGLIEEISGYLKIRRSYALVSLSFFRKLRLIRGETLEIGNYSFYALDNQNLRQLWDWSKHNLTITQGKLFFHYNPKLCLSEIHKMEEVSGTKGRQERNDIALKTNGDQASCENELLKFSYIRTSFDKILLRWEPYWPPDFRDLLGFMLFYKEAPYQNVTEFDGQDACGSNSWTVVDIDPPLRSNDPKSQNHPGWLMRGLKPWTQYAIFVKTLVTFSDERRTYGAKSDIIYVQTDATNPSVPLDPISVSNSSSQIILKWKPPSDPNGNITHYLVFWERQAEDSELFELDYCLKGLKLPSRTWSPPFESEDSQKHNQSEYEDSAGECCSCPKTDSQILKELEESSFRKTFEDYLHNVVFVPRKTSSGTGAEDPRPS
Insulin Receptor, sequence (P06213 763-1382 partner limits assumed): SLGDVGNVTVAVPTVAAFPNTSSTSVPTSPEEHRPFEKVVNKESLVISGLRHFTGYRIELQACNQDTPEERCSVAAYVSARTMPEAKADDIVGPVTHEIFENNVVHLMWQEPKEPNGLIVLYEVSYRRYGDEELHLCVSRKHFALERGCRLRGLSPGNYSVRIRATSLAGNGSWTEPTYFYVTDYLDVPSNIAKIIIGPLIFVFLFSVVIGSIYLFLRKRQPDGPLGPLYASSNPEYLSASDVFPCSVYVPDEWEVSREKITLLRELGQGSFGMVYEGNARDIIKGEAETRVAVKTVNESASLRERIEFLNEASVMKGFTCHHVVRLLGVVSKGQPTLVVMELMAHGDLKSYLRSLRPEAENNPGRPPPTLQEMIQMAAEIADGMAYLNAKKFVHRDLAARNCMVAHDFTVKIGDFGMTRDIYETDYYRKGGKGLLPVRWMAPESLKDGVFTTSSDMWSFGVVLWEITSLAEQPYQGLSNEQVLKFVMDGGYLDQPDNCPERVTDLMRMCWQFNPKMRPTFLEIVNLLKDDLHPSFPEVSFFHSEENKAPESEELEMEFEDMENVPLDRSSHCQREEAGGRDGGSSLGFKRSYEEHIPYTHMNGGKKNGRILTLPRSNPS

in vitro = in vitro ADME; details: plasma
[2] = Dipeptide half life on IGF1 dipeptide extended (p-NH2-F)A19 amide derivatives in PBS (HPLC); assay type: physicochemical; details: buffer, pH 7.4
Procedure: IGF-1 peptides was measured to determine the impact of the peptide sequence or heteroduplex on the dipeptide cleavage.
Accordingly, the IGF1A chain alone was determined to be a good model for the study of pro-drug half life on IGF1 B:A (Y^B16L^B17) derivative peptides. […] For simplicity, prodrug half lives were determined using only the IGF1 A chain in the absence of the B chain. The half lives of each propeptide was determined as described in Example 5.
The IGF^B16B17 derivative peptide prodrugs were incubated in PBS, pH 7.4 at 37° C. and at predetermined time intervals an aliquot was taken and further degradation was quenched with 0.1% TFA and the aliquot was subjected to analytical HPLC analysis. Peaks a and b, representing the prodrug and active forms of the IGF^B16B17 derivative peptide were identified with LC-MS and quantified by integration of peak area an HPLC. FIGS. 9A-9C show the output of an HPLC analysis of the degradation of the IGF^B16B17 derivativepeptide prodrug: IGF1A(Ala)^6,7,11,20(Aib-Pro-pNH-F)^19. Aliquots were taken at 20 minutes (FIG. 9A), 81 minutes (FIG. 9B) and 120 minutes (FIG. 9C) after beginning the incubation of the prodrug in PBS.

human IGF-1 receptor = human IGF-1 receptor (human, UniProt P08069 31-1367); assay: cell-based or functional assay

C[C@@H](O)[C@H](NC(=O)CNC(=O)[C@H](CCCNC(=N)N)NC(=O)[C@H](CO)NC(=O)[C@H](Cc1c[nH]cn1)NC(=O)[C@@H]1CCN1C(=O)C(C)(C)N)C(=O)N[C@@H](Cc1ccccc1)C(N)=O [Compound 26] (H-[Aib][Aze]HSRGTF-NH2)
half-life at 1 mg/ml (physchem): > 500 h

C[C@@H](O)[C@H](NC(=O)CNC(=O)[C@H](CCCNC(=N)N)NC(=O)[C@H](CO)NC(=O)[C@H](Cc1c[nH]cn1)NC(=O)[C@H](C)N(C)C(=O)[C@H](N)CCCCN)C(=O)N[C@@H](Cc1ccccc1)C(N)=O [Compound 31]
half-life at 1 mg/ml [1]: 14 h

C[C@@H](O)[C@H](NC(=O)CNC(=O)[C@H](CCCNC(=N)N)NC(=O)[C@H](CO)NC(=O)[C@H](Cc1c[nH]cn1)NC(=O)[C@H](Cc1ccccc1)N(C)C(=O)[C@H](N)CCCCN)C(=O)N[C@@H](Cc1ccccc1)C(N)=O [Compound 32]
half-life at 1 mg/ml [1]: 57 h

CC[C@H](C)[C@H](NC(=O)CN)C(=O)N[C@H](C(=O)N[C@@H](CC(=O)O)C(=O)N[C@@H](CCC(=O)O)C(=O)N[C@H]1CSSC[C@@H]2NC(=O)[C@H](CO)NC(=O)[C@H](CCCNC(=N)N)NC(=O)[C@H](Cc3ccccc3)NC(=O)[C@H](CSSC[C@H](NC(=O)[C@H](CC(C)C)NC(=O)[C@@H](NC(=O)[C@H](CCC(=O)O)NC(=O)[C@@H]3CCCN3C(=O)CN)[C@@H](C)O)C(=O)NCC(=O)N[C@@H](C)C(=O)N[C@@H](CCC(=O)O)C(=O)N[C@@H](CC(C)C)C(=O)N[C@@H](C(C)C)C(=O)N[C@@H](CC(=O)O)C(=O)N[C@@H](C)C(=O)N[C@@H](CC(C)C)C(=O)N[C@@H](Cc3ccc(O)cc3)C(=O)N[C@@H](CC(C)C)C(=O)N[C@@H](C(C)C)C(=O)N[C@H](C(=O)NCC(=O)N[C@@H](CC(=O)O)C(=O)N[C@@H](CCCNC(=N)N)C(=O)NCC(=O)N[C@@H](Cc3ccccc3)C(=O)N[C@@H](Cc3ccc(O)cc3)C(N)=O)CSSC[C@@H](C(=O)N[C@@H](C)C(N)=O)NC(=O)[C@H](Cc3ccc(O)cc3)NC(=O)[C@H](CCSC)NC(=O)[C@H](CCC(=O)O)NC(=O)[C@H](CC(C)C)NC(=O)[C@H](CCCNC(=N)N)NC(=O)[C@H](CCCNC(=N)N)NC(=O)[C@H](CC(C)C)NC(=O)[C@H](CC(=O)O)NC2=O)NC1=O)C(C)C [IGF-1 A:B (E10Y16L17) DPI]
Ratio (Insulin Receptor): 60.2

CC[C@H](C)[C@H](NC(=O)CN)C(=O)N[C@H](C(=O)N[C@@H](CC(=O)O)C(=O)N[C@@H](CCC(=O)O)C(=O)N[C@@H](C)C(=O)N[C@@H](C)C(=O)N[C@@H](Cc1ccccc1)C(=O)N[C@@H](CCCNC(=N)N)C(=O)N[C@@H](CO)C(=O)N[C@@H](C)C(=O)N[C@@H](CC(=O)O)C(=O)N[C@@H](CC(C)C)C(=O)N[C@@H](CCCNC(=N)N)C(=O)N[C@@H](CCCNC(=N)N)C(=O)N[C@@H](CC(C)C)C(=O)N[C@@H](CCC(=O)O)C(=O)N[C@@H](CCSC)C(=O)N[C@@H](Cc1ccc(NC(=O)CN(CC(C)C)C(=O)[C@H](N)CCCCN)cc1)C(=O)N[C@@H](C)C(=O)N[C@@H](C)C(N)=O)C(C)C [dK N-isobutyl Gly] (H-GIVDEAAFRSADLRRLEM[Phe(4-NH2)]([Nleu-dK])AA-NH2)
half-life (in vitro): 4.1 h
half-life [2]: 4.4 h

B1: IGF-1 A (H8 A9 N21):B(H5D10Y16L17 A22) DPI A-COOH (ligand)
chain 1: GIVDECCHASCDLRRLEMYCN-OH
chain 2: GPEHLCGADLVDALYLVCGDAGFY
modifications: not fully specified (bridges); cysteine pairing not given here
% IGF (human IGF-1 receptor): 7.7%
